In ChEMBL document CHEMBL5329166, “Discovery of imeglimin-inspired novel 1,3,5-triazine derivatives as antidiabetic agents in streptozotocin-induced diabetes in Wistar rats via inhibition of DPP-4” (RSC Med Chem, 2023):
The source made the active and inactive calls.

Assays:
Rattus norvegicus [1] = assay: Antioxidant activity in IG dosed high fat diet/STZ induced diabetic Wistar rat model assessed as reversal of CAT reduction in kidney pretreated with STZ for 21 days followed by compound treatment once daily for 21 days by spectrophotometric analysis; assay type: functional, organism-based; settings: dose 3-30 mg/kg, time 21.0 day
Rattus norvegicus [2] = assay: Antidiabetic activity in high fat diet/STZ induced diabetic Wistar rat model assessed as reduction in triglyceride level at 3 to 30 mg/kg, IG pretreated with STZ for 21 days followed by compound treatment once daily for 21 days by spectrophotometric analysis; assay type: functional, organism-based; settings: dose 3-30 mg/kg, time 21.0 day
Rattus norvegicus [3] = assay: Antioxidant activity in high fat diet/STZ induced diabetic Wistar rat model assessed as repair of pancreatic epithelial cells with reduced inflammation at 30 mg/kg, IG pretreated with STZ for 21 days followed by compound treatment once daily for 21 days by H and E staining based microscopic analysis; assay type: functional, organism-based; settings: time 21.0 day
[4] = Antioxidant activity assessed as DPPH scavenging activity incubated for 30 mins by absorbance based assay; assay type: functional; settings: dose 25-100 µg/ml
Rattus norvegicus [5] = assay: Antioxidant activity in IG dosed high fat diet/STZ induced diabetic Wistar rat model assessed as reversal of CAT reduction in liver pretreated with STZ for 21 days followed by compound treatment once daily for 21 days by spectrophotometric analysis; assay type: functional, organism-based; settings: dose 3-30 mg/kg, time 21.0 day
Rattus norvegicus [6] = assay: Antidiabetic activity in high fat diet/STZ induced diabetic Wistar rat model assessed as reduction in total cholesterol level at 3 to 30 mg/kg, IG pretreated with STZ for 21 days followed by compound treatment once daily for 21 days by spectrophotometric analysis; assay type: functional, organism-based; settings: dose 3-30 mg/kg, time 21.0 day
[7] = Antioxidant activity assessed as H2O2 scavenging activity at 73.43 ug/ml incubated for 10 mins by absorbance based assay; assay type: functional; settings: dose 73.43 µg/ml
Rattus norvegicus [8] = assay: Antioxidant activity in high fat diet/STZ induced diabetic Wistar rat model assessed as reduction in lymphocyte level in renal stroma at 3 to 30 mg/kg, IG pretreated with STZ for 21 days followed by compound treatment once daily for 21 days by H and E staining based microscopic analysis; assay type: functional, organism-based; settings: dose 3-30 mg/kg, time 21.0 day
Rattus norvegicus [9] = assay: Antidiabetic activity in high fat diet/STZ induced diabetic Wistar rat model assessed as reduction in VLDL level at 3 to 30 mg/kg, IG pretreated with STZ for 21 days followed by compound treatment once daily for 21 days by spectrophotometric analysis; assay type: functional, organism-based; settings: dose 3-30 mg/kg, time 21.0 day
Rattus norvegicus [10] = assay: Antioxidant activity in high fat diet/STZ induced diabetic Wistar rat model assessed as reduction in plasma cells in renal stroma at 3 to 3 to 30 mg/kg, IG pretreated with STZ for 21 days followed by compound treatment once daily for 21 days by H and E staining based microscopic analysis; assay type: functional, organism-based; settings: dose 3-30 mg/kg, time 21.0 day
[11] = Antioxidant activity assessed as H2O2 scavenging activity incubated for 10 mins by absorbance based assay; assay type: functional; settings: dose 25-100 µg/ml
Rattus norvegicus [12] = assay: Antioxidant activity in high fat diet/STZ induced diabetic Wistar rat model assessed as healing of hepatocyte central veins at 3 to 10 mg/kg, IG pretreated with STZ for 21 days followed by compound treatment once daily for 21 days by H and E staining based microscopic analysis; assay type: functional, organism-based; settings: dose 3-10 mg/kg, time 21.0 day
[13] = Acute toxicity in rat assessed as diarrhoea at 300 to 1000 mg/kg, po measured after 6 hrs; assay type: organism-based; settings: in vivo, dose 300-1000 mg/kg
Rattus norvegicus [14] = assay: Antioxidant activity in high fat diet/STZ induced diabetic Wistar rat model assessed as healing of hepatocyte nucleus at 3 mg/kg, IG pretreated with STZ for 21 days followed by compound treatment once daily for 21 days by H and E staining based microscopic analysis; assay type: functional, organism-based; settings: time 21.0 day
[15] = Acute toxicity in rat assessed as change in animal eyes at 300 to 1000 mg/kg, po measured after 6 hrs; assay type: organism-based; settings: in vivo, dose 300-1000 mg/kg
Rattus norvegicus [16] = assay: Antidiabetic activity in high fat diet/STZ induced diabetic Wistar rat model assessed as increase in body weight at 3 to 30 mg/kg, IG pretreated with STZ for 21 days followed by compound treatment once daily for 21 days; assay type: functional, organism-based; settings: dose 3-30 mg/kg, time 21.0 day
[17] = Acute toxicity in rat assessed as change in sleep patterns at 2000 mg/kg, po measured after 30 mins to 4 hrs; assay type: organism-based; settings: in vivo, time 0.5-4 hrs
Rattus norvegicus [18] = assay: Antioxidant activity in high fat diet/STZ induced diabetic Wistar rat model assessed as absence of feathery hepatocyte deterioration at 30 mg/kg, IG pretreated with STZ for 21 days followed by compound treatment once daily for 21 days by H and E staining based microscopic analysis; assay type: functional, organism-based; settings: time 21.0 day
Rattus norvegicus [19] = assay: Antioxidant activity in high fat diet/STZ induced diabetic Wistar rat model assessed as reduction in hazy swelling of columnar cells in tubules at 3 mg/kg, IG pretreated with STZ for 21 days followed by compound treatment once daily for 21 days by H and E staining based microscopic analysis; assay type: functional, organism-based; settings: time 21.0 day
[20] = Acute toxicity in rat assessed as sleep and sluggish effect at 300 to 1000 mg/kg, po measured after 6 hrs; assay type: organism-based; settings: in vivo, dose 300-1000 mg/kg
Rattus norvegicus [21] = assay: Antioxidant activity in IG dosed high fat diet/STZ induced diabetic Wistar rat model assessed as reversal of GSH reduction in kidney pretreated with STZ for 21 days followed by compound treatment once daily for 21 days by spectrophotometric analysis; assay type: functional, organism-based; settings: dose 3-30 mg/kg, time 21.0 day
Rattus norvegicus [22] = assay: Antidiabetic activity in high fat diet/STZ induced diabetic Wistar rat model assessed as increase in fasting serum insulin at 3 to 30 mg/kg, IG pretreated with STZ for 21 days followed by compound treatment once daily for 21 days by chemiluminescence immunoassay; assay type: functional, organism-based; settings: dose 3-30 mg/kg, time 21.0 day
[23] = Acute toxicity in rat assessed as change in mucosal membranes at 300 to 1000 mg/kg, po measured after 6 hrs; assay type: organism-based; settings: in vivo, dose 300-1000 mg/kg
Rattus norvegicus [24] = assay: Antioxidant activity in high fat diet/STZ induced diabetic Wistar rat model assessed as repair of pancreatic epithelial cells with normal islets at 30 mg/kg, IG pretreated with STZ for 21 days followed by compound treatment once daily for 21 days by H and E staining based microscopic analysis; assay type: functional, organism-based; settings: time 21.0 day
Rattus norvegicus [25] = assay: Antidiabetic activity in IG dosed high fat diet/STZ induced diabetic Wistar rat model assessed as reduction in blood sugar level pretreated with STZ for 21 days followed by compound treatment once daily for 21 days by glucose test strips based assay; assay type: functional, organism-based; settings: dose 3-30 mg/kg, time 21.0 day
[26] = Acute toxicity in rat assessed as change in eyes and mucous membranes at 2000 mg/kg, po measured after 30 mins to 4 hrs; assay type: organism-based; settings: in vivo, time 0.5-4 hrs
[27] = Acute toxicity in rat assessed as change in animal skin and fur at 2000 mg/kg, po measured after 30 mins to 4 hrs; assay type: organism-based; settings: in vivo, time 0.5-4 hrs
[28] = Antioxidant activity assessed as DPPH scavenging activity at 91.26 ug/ml incubated for 30 mins by absorbance based assay; assay type: functional; settings: dose 91.26 µg/ml
Rattus norvegicus [29] = assay: Antioxidant activity in IG dosed high fat diet/STZ induced diabetic Wistar rat model assessed as reversal of GPx reduction in liver pretreated with STZ for 21 days followed by compound treatment once daily for 21 days by spectrophotometric analysis; assay type: functional, organism-based; settings: dose 3-30 mg/kg, time 21.0 day
Dipeptidyl peptidase 9 = Dipeptidyl peptidase 9 (Homo sapiens, UniProt Q86TI2); assay: Inhibition of N-terminal GST-tagged human recombinant DPP-9 short form (1 to 863 residues) expressed in Sf9 cells using Ala-Pro-AMC dipeptide as substrate by fluorescence based assay
Rattus norvegicus [30] = assay: Antidiabetic activity in high fat diet/STZ induced diabetic Wistar rat model assessed as reduction in LDL level at 3 to 30 mg/kg, IG pretreated with STZ for 21 days followed by compound treatment once daily for 21 days by spectrophotometric analysis; assay type: functional, organism-based; settings: dose 3-30 mg/kg, time 21.0 day
[31] = Acute toxicity in rat assessed as animal survival at 2000 mg/kg, po measured after 30 mins to 4 hrs; assay type: organism-based; settings: in vivo, time 0.5-4 hrs

Chain of Dipeptidyl peptidase 9 (Q86TI2 whole entry, the tested form may be a part): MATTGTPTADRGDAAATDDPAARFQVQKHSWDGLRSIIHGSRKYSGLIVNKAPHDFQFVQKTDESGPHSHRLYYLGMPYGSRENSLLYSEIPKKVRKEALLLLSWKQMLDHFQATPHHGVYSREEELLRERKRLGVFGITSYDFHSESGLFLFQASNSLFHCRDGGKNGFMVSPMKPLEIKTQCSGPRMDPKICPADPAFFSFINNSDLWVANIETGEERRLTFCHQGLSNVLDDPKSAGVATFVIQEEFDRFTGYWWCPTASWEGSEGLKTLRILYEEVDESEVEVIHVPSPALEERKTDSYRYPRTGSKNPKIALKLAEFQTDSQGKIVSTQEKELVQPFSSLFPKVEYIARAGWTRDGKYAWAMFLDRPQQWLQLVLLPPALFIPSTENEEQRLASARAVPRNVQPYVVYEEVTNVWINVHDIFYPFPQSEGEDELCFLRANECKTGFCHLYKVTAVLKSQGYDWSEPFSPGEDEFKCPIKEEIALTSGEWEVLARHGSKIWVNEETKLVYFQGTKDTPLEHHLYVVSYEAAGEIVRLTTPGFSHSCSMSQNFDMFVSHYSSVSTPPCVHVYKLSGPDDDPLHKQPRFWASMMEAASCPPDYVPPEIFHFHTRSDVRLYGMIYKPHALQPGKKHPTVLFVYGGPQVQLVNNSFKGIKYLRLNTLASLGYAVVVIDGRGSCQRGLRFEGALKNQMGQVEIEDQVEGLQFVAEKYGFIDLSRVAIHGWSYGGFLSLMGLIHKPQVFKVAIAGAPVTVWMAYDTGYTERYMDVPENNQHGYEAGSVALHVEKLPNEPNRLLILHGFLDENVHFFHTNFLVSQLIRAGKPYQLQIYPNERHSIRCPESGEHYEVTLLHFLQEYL

Nc1nc(NC2=NC(c3ccccc3)=CC(c3cccc([N+](=O)[O-])c3)O2)nc(N2CCOCC2)n1 (configuration not stated)
inactive: Activity (Rattus norvegicus [19])
> 400 nM: IC50 (Dipeptidyl peptidase 9)
active: Activity (Rattus norvegicus [1]) Dose-Dependent Effect | Activity (Rattus norvegicus [2]) | Activity (Rattus norvegicus [3]) | Activity [4] Dose-Dependent Effect | Activity (Rattus norvegicus [5]) Dose-Dependent Effect | Activity (Rattus norvegicus [6]) | Activity [7] | Activity (Rattus norvegicus [8]) | Activity (Rattus norvegicus [9]) | Activity (Rattus norvegicus [10]) | Activity [11] Dose-Dependent Effect | Activity (Rattus norvegicus [12]) | Activity (Rattus norvegicus [14]) | Activity (Rattus norvegicus [16]) | Activity (Rattus norvegicus [18]) | Activity (Rattus norvegicus [21]) Dose-Dependent Effect | Activity (Rattus norvegicus [22]) | Activity (Rattus norvegicus [24]) | Activity (Rattus norvegicus [25]) Dose-Dependent Effect | Activity [28] | Activity (Rattus norvegicus [29]) Dose-Dependent Effect | Activity (Rattus norvegicus [30])
Non-Toxic: Activity [13] | Activity [15] | Activity [17] | Activity [20] | Activity [23] | Activity [26] | Activity [27] | Activity [31]
